Laboratory results as given in patent publication US9026372B2, “Methods for providing a system of care for a high-dose oxazaphosphorine drug regimen” (Accentia Biopharmaceuticals, Inc., priority 2007, dated 2015).
Read-outs that look alike come from different tables or passages of the source.

Legend:
[1] = tested on: white blood cell (WBC) count
From the text: On Day 6, (six days after completion of high-dose cyclophosphamide treatment), patients received G-CSF.

[2] = tested on: aggressive relapsing-remitting multiple sclerosis
From the text: All 9 patients had aggressive relapsing-remitting multiple sclerosis, 8 of whom failed conventional therapy and 1 was untreated. Median age at time of entry was 29 years (range of 20 to 47 years). The mean number of gadolinium enhancing lesions on baseline MRI was 6.5 (range 3-11).

SMILES: O=P1(N(CCCl)CCCl)NCCCO1 (centres unmarked) [cyclophosphamide]
- minimum WBC ([1]; patient HiCy01, never had GEL, suspected exacerbations): 70
- minimum WBC ([1]; patient HiCy07, went to 0 GEL, single GEL on follow-up MRI): 6
- minimum WBC count ([1]; patient HiCy11, GEL on every follow up): 24
- minimum WBC ([1]; patient HiCy14, went to 0 GEL, single GEL on follow-up MRI): 31
- minimum WBC count ([1]; patient HiCy19, GEL on every follow up, only 6 months of follow-up): 50
- WBC count (minimum) ([1]; patients HiCy05 and HiCy13, within two weeks of treatment, no GEL up to 24 months follow-up): 0
- minimum WBC count ([1]; patients HiCy09 and HiCy15 (both), 0 GEL): 12
- reduction in disability (EDSS) ([2]; 9 patients, at baseline 66% had EDSS of 5.0 or more): 50%
- reduction in gadolinium enhancements ([2]; at 6 months following 50 mg/kg/day intravenously for four days, 9 patients, baseline mean 6.5 lesions): 90%
- reduction in gadolinium enhancements ([2]; by 18 months following 50 mg/kg/day intravenously for four days, 9 patients): 94%
- adverse outcomes ([2]; initial cohort of 9 patients with severe relapsing MS): no significant adverse outcomes
- patients having no disability (EDSS score of 0) ([2]; of 9 patients, after treatment): 3 patients
- patients with EDSS score of 1 ([2]; of 9 patients, after treatment): 1 patient
- patients with an exacerbation during follow-up ([2]; of 9 patients, started on conventional MS therapy at 18 months): one
